Measured values as given in patent publication US6258806A, “Amine derivatives of oxo- and hydroxy- substituted hydrocarbons” (Narhex Limited, priority 1992, dated 2001).

Key:
[1] = system: Human Immunodeficiency Virus type 1 (HIV) strain #237228 in MT2 cells; test: Anti-HIV-1 antiviral activity in acutely infected MT2 cells (CPE and RT activity); type: cell-based; details: for IC100: Human immunodeficiency virus 1, 144 h, acute HIV-1 infection, day 6, concentration at which virus replication is inhibited (CPE negative or ±, >95% inhibition of RT activity); for antiviral index (Al), MT2 cells: only non-toxic concentrations used, 8640 min; for IC80: Human immunodeficiency virus 1, printed in the IC100 column with footnote (b) IC80
Text: (§1) The antiviral activity of representative compounds of the present invention has been determined at the Antivirals Laboratory, Fairfield Hospital, Fairfield, Victoria, Australia. In this test a stock solution of each compound was made in DMSO, then diluted in culture medium (RF 10) to 2× the final concentration required for test. The final concentration of DMSO was 1% or below. Approximately 250,000 continuous lymphocytes of human origin (MT2 cells) or 750,000 human peripheral blood lymphocytes (PBLs) were exposed to dilutions of each test compound, then immediately infected with Human Immunodeficiency Virus type 1 (HIV) strain #237228 (a clinical isolate obtained from a human source). The infectivity titers were expressed as tissue culture 50% infective dose (TCID50 per ml) with 1 TCID50 corresponding to the amount of supernatant required to infect 50% of the replicate cell cultures. The 250 and 200 TCID50 were used for MT2 and PBL cells respectively. The cell/drug/virus mixture was then incubated at 37° C./CO2 in a 24-well microtitre plate. Fresh amounts of the appropriate dilution of each drug were added to both MT2 and PBL cultures at day 3. At day 6, the extent of HIV-specific cytopathic effects (CPE) associated with each concentration of test compound in each of the cultures was rated according to the following scale:
(§2) 4+: 75-100% of cells showing 3+: good CPE
(§3) 3+: 50-75% of cells showing 2+: moderate CPE
(§4) 2+: 25-50% of cells showing 1+: low CPE
(§5) 1+: 5-25% of cells showing trace: minimal CPE
(§6) +/-: less than 5% CPE Negative: no CPE
(§7) The activity of the compounds at each concentration was also assessed by their ability to inhibit viron-associated reverse transcriptase (RT) activity in the culture supernates. At the time of rating of CPE, supernatant fluids from each well were removed and RT activity measured using a standard assay. CPE ratings of negative, ± (in MT2 cells) or trace (in PBLs), with greater than 95% inhibition of RT activity, was considered to represent IC100 (the concentration of compound at which the virus replication is inhibited). Control cultures included in each test were:
(§8) (a) HIV-infected cells in the absence of test compound.
(§9) (b) Uninfected cells in the absence of tested compound.
(§10) (c) Cell toxicity control consisting of uninfected cells treated with dilutions of test compound.
(§11) At the conclusion of each experiment, viable cells in these cultures, as determined by tryptan blue exclusion, were compared with the counts obtained in (b), above.

[2] = system: Human Immunodeficiency Virus type 1 (HIV) strain #237228 in human peripheral blood lymphocytes (PBLs); test: Anti-HIV-1 antiviral activity in acutely infected peripheral blood lymphocytes (CPE and RT activity); type: cell-based, Human Immunodeficiency Virus type 1 (HIV); human cells; details: for IC100: Human immunodeficiency virus 1, 144 h, PBL cells, acute HIV-1 infection, day 6, concentration at which virus replication is inhibited (CPE negative or trace, >95% inhibition of RT activity); for antiviral index (Al), PBL cells: only non-toxic concentrations used, 8640 min
Text: as §1, §2, §3, §4, §5, §6, §7, §8, §9, §10, §11

HIV-1 protease = HIV-1 protease (Human immunodeficiency virus type 1 group M subtype B, UniProt P04585); test: HIV-1 protease-inhibiting activity; type: biochemical; details: half-maximal inhibition of HIV-1 protease
Text: The HIV protease-inhibiting activity of representative compounds of the present invention has been tested by known methods (Brinkworth, R. I., et al., Biochem. Biophys. Res. Commun. 176, 241, (1991); McLeod, D. A., et al., Bioorganic & Medicinal Chemistry Letters (1991) 653-658).

SMILES: CC(C)[C@H](NC(=O)c1ccc2ccccc2n1)C(=O)N[C@@H](Cc1ccccc1)[C@H](O)CN(NC(=O)OC(C)(C)C)C(C)C [Compound 9, t-Butyl 3-Isopropyl-3-[(2R,3S)-2-hydroxy-3-(N-quinaldyl-L-valyl)amino-4-phenylbutyl]carbazate]
- IC100 [1]: 5 µM
- antiviral index (Al), MT2 cells [1]: 4

SMILES: CC(C)(C)OC(=O)N1CC2CCCCC2CN1CC(O)[C@H](Cc1ccccc1)NC(=O)[C@H](CCC(N)=O)NC(=O)c1ccc2ccccc2n1 (stereo partly drawn) [Compound 4, cis-1,6-3-t-Butoxycarbonyl-4-[(2RS,3S)-2-hydroxy-3-(N-quinaldyl-L-glutaminyl)amino-4-phenylbutyl]-3,4-diaza-bicyclo[4.4.0]decane]
- IC100 [1]: 1 µM
- antiviral index (Al), MT2 cells [1]: 10
- IC100 [2]: 1 µM
- antiviral index (Al), PBL cells [2]: 10

SMILES: CC(C)[C@H](NC(=O)OCc1ccccn1)C(=O)N[C@@H](Cc1ccccc1)C(O)CN1C2CCC(C2)N1C(=O)OC(C)(C)C (stereo partly drawn) [Compound 10, 2-t-Butoxycarbonyl-3-[(2RS, 3S)-2-hydroxy-3-[N-(2-pyridyl)-methoxycarbonyl-L-valyl]amino-4-phenylbutyl]-2,3-diaza-bicyclo[2.2.1]-heptane]
- IC50 (HIV-1 protease): 3300 ± 650 nM
- IC100 [1]: 25 µM
- antiviral index (Al), MT2 cells [1]: 1

SMILES: CC(C)(C)OC(=O)NN(Cc1ccccc1)C[C@H](O)[C@H](Cc1ccccc1)NC(=O)[C@H](CC(N)=O)NC(=O)c1ccc2ccccc2n1 [Compound 16, t-Butyl 3-benzyl-3-[(2S,3S)-2-hydroxy-3-(N-quinaldyl-L-asparaginyl)amino-4-phenylbuty]carbazate]
- IC100 [1]: 1 µM
- antiviral index (Al), MT2 cells [1]: 100
- IC100 [2]: 1 µM
- antiviral index (Al), PBL cells [2]: 1

SMILES: CC(C)(C)OC(=O)N1CC2CCCCC2CN1C[C@H](O)[C@H](Cc1ccccc1)NC(=O)[C@H](CC#N)NC(=O)c1ccc2ccccc2n1 (stereo partly drawn) [Compound 20, cis-1,6-3-t-Butoxycarbonyl-4-[(2S,3S)-2-hydroxy-3-(N-quinaldyl-3-cyano-L-alanyl)amimo-4-phenylbutyl]-3,4-diaza-bicyclo[4.4.0]decane]
- IC100 [1]: 1 µM
- antiviral index (Al), MT2 cells [1]: 10
- IC100 [2]: 1 µM
- antiviral index (Al), PBL cells [2]: 10

SMILES: C[C@@H](O)[C@H](NC(=O)c1ccc2ccccc2n1)C(=O)N[C@@H](Cc1ccccc1)C(O)CN1CC2CCCCC2CN1C(=O)OC(C)(C)C (stereo partly drawn) [Compound 5, cis-1,6-3-t-Butoxycarbonyl-4-[(2RS,3S)-2-hydroxy-3-(N-quinaldyl-L-threonyl)amino-4-phenylbutyl]-3,4-diaza-bicyclo[4.4.0]decane]
- IC100 [1]: 1 µM
- antiviral index (Al), MT2 cells [1]: < 10
- IC100 [2]: 1 µM
- antiviral index (Al), PBL cells [2]: < 10

SMILES: CC(C)N(C[C@H](O)[C@H](Cc1ccccc1)NC(=O)[C@H](CC(N)=O)NC(=O)c1ccccn1)NC(=O)OC(C)(C)C [Compound 15, t-Butyl 3-isopropyl-3-[(2S,3S)-2-hydroxy-3-(N-picolinyl-L-asparaginyl)amino-4-phenylbutyl]carbazate]
- IC100 [1]: 1 µM
- antiviral index (Al), MT2 cells [1]: 100
- IC100 [2]: 1 µM
- antiviral index (Al), PBL cells [2]: 200

SMILES: CC(C)(C)OC(=O)N1CC2CCCCC2CN1C[C@H](O)[C@H](Cc1ccccc1)NC(=O)[C@H](CC(N)=O)NC(=O)c1ccc2ccccc2n1 (stereo partly drawn) [Compound 2b, cis-1,6-3-t-Butoxycarbonyl-4-[(2S, 3S)-2-hydroxy-3-(N-quinaldyl-L-asparaginyl)amino-4-phenylbutyl]-3,4-diaza-bicyclo[4.4.0]decane]
- IC100 [1]: 0.1 µM
- antiviral index (Al), MT2 cells [1]: 50
- IC100 [2]: 0.1 µM
- antiviral index (Al), PBL cells [2]: 100

SMILES: CC(C)N(C[C@H](O)[C@H](Cc1ccccc1)NC(=O)[C@H](CC(N)=O)NC(=O)c1ccccc1)NC(=O)OC(C)(C)C [Compound 18, t-Butyl 3-isopropyl-3-[(2S,3S)-2-hydroxy-3-(N-benzoyl-L-asparaginyl)amino-4-phenylbutyl]carbazate]
- IC100 [1]: 1 µM
- antiviral index (Al), MT2 cells [1]: 10
- IC100 [2]: 1 µM
- antiviral index (Al), PBL cells [2]: > 150

SMILES: CC(CCc1ccccc1)N(C[C@@H](O)[C@H](Cc1ccccc1)NC(=O)[C@H](CC(N)=O)NC(=O)c1ccc2ccccc2n1)NC(=O)OC(C)(C)C (stereo partly shown) [Compound 12]
- IC80 [1]: 1000 nM
- antiviral index (Al), MT2 cells [1]: 10

SMILES: CC(C)(C)OC(=O)N1CCCCN1C[C@H](O)[C@H](Cc1ccccc1)NC(=O)[C@H](CC(N)=O)NC(=O)c1ccc2ccccc2n1 [Compound 19, 1-t-Butyloxycarbonyl-2-[(2S,3S)-2-hydroxy-3-(N-quinaldyl-L-asparaginyl)amino-4-phenylbutyl]hexahydropyridazine]
- IC100 [1]: 1 µM
- antiviral index (Al), MT2 cells [1]: 10
- IC100 [2]: 0.1 µM
- antiviral index (Al), PBL cells [2]: 200

SMILES: CC(C)[C@H](NC(=O)c1ccc2ccccc2n1)C(=O)N[C@@H](Cc1ccccc1)C(O)CN1CC2CCCCC2CN1C(=O)OC(C)(C)C (stereo partly shown) [Compound 3]
- IC100 [1]: 1 µM
- antiviral index (Al), MT2 cells [1]: 5
- IC100 [2]: 1 µM
- antiviral index (Al), PBL cells [2]: 5

SMILES: CC(C)(C)OC(=O)N1CC2CCCCC2CN1C[C@H](O)[C@H](Cc1ccccc1)NC(=O)[C@H](CC(N)=O)NC(=O)c1ccc2ccccc2n1 (single isomer, unassigned) [Compound 2b.A]
- IC80 [1]: 10 nM
- antiviral index (Al), MT2 cells [1]: 100
- IC100 [2]: 0.01 µM
- antiviral index (Al), PBL cells [2]: 1000

SMILES: CC(C)(C)OC(=O)N1CC2CCCCC2CN1CC(O)[C@H](Cc1ccccc1)NC(=O)OCc1ccccc1 (stereo partly drawn) [Compound 1, cis-1,6-3-t-Butoxycarbonyl-4-[(2RS,3S)-2-hydroxy-3-(phenylmethoxycarbonyl)amino-4-phenylbutyl]-3,4-diaza-bicyclo-[4.4.0]decane]
- IC50 ([1]; Human immunodeficiency virus 1, printed in the IC100 column with footnote (a) IC50): 10000 nM
- antiviral index (Al), MT2 cells [1]: 1

SMILES: CC(C)[C@H](NC(=O)OCc1ccccn1)C(=O)N[C@@H](Cc1ccccc1)C(O)CN1CC2CCCCC2CN1C(=O)OC(C)(C)C (stereo partly drawn) [Compound 6, cis-1,6-3-t-Butoxycarbonyl-4-[(2RS,3S)-2-hydroxy-3-[N-(2-pyridyl)methoxycarbonyl-L-valyl]amino-4-phenylbutyl]-3,4-diaza-bicyclo[4.4.0]decane]
- IC100 [1]: 1 µM
- antiviral index (Al), MT2 cells [1]: < 5
- IC100 [2]: 1 µM
- antiviral index (Al), PBL cells [2]: < 5

SMILES: CC(C)N(C[C@H](O)[C@H](Cc1ccccc1)NC(=O)[C@H](CC(N)=O)NC(=O)c1ccc2ccccc2n1)NC(=O)NC(C)(C)C [Compound 14, 1-(t-Butylamino)carbonyl-2-[(2S,3S)-2-hydroxy-3-(N-quinaldyl-L-asparaginyl)amino-4-phenylbutyl]-2-isopropylhydrazine]
- IC100 [1]: 1 µM
- antiviral index (Al), MT2 cells [1]: 50
- IC100 [2]: 1 µM
- antiviral index (Al), PBL cells [2]: > 50

SMILES: CC(C)N(C[C@H](O)[C@H](Cc1ccccc1)NC(=O)[C@H](CC(N)=O)NC(=O)c1ccc2ccccc2n1)NC(=O)C(C)(C)C [Compound 13, 1-Trimethylacetyl-2-[(2S,3S)-2-hydroxy-3-(N-quinaldyl-L-asparaginyl)amino-4-phenylbutyl]-2-isopropylhydrazine]
- IC100 [1]: 1 µM
- antiviral index (Al), MT2 cells [1]: 50
- IC100 [2]: 1 µM
- antiviral index (Al), PBL cells [2]: > 50
